Experiment [1] is described as follows: Inhibition of maize HD2. The arrangement: species or system Zea mays.
Experiment [2] can be described thus: Inhibition of maize HD1-A. The arrangement: species or system Zea mays.
Experiment [3] concerns the target T1, Protein deacetylase HDAC6 (Homo sapiens, UniProt Q9UBN7).
T1 sequence (Q9UBN7 whole entry): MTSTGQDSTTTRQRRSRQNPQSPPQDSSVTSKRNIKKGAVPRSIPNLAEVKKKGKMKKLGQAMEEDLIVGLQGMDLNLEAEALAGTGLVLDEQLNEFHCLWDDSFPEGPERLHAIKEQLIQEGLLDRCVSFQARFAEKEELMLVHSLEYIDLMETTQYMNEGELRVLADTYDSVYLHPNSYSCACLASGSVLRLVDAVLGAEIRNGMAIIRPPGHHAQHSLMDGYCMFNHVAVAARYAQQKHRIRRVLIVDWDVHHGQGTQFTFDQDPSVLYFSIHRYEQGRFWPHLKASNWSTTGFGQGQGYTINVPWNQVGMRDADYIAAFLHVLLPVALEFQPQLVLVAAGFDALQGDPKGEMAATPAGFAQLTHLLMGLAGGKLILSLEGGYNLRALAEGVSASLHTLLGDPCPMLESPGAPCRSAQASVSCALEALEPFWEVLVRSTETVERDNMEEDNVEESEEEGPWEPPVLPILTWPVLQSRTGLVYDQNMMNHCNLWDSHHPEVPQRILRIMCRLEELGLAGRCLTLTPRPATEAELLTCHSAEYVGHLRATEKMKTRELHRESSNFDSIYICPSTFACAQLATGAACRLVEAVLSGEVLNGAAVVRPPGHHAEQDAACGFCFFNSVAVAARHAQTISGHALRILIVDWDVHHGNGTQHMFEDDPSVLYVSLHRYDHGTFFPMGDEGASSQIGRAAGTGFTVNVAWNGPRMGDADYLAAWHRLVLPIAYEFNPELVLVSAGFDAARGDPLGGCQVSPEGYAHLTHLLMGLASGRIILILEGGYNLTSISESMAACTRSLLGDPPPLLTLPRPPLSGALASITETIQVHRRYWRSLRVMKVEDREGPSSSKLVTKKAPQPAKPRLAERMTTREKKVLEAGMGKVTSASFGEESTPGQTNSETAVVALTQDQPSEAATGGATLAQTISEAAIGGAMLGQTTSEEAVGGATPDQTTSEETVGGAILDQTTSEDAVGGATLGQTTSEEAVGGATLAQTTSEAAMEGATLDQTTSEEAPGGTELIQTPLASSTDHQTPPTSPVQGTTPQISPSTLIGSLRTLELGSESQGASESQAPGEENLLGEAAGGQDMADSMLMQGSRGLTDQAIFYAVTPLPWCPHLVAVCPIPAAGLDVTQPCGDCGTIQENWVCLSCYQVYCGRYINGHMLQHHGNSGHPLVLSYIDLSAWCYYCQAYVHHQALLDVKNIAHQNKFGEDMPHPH
Put plainly: Inhibition of HADC6 (unknown origin).

A further experiment addresses Histone deacetylase 1 (Homo sapiens, UniProt Q13547). Put plainly: Inhibition of HADC1 (unknown origin).

Chain of Histone deacetylase 1 (Q13547 whole entry): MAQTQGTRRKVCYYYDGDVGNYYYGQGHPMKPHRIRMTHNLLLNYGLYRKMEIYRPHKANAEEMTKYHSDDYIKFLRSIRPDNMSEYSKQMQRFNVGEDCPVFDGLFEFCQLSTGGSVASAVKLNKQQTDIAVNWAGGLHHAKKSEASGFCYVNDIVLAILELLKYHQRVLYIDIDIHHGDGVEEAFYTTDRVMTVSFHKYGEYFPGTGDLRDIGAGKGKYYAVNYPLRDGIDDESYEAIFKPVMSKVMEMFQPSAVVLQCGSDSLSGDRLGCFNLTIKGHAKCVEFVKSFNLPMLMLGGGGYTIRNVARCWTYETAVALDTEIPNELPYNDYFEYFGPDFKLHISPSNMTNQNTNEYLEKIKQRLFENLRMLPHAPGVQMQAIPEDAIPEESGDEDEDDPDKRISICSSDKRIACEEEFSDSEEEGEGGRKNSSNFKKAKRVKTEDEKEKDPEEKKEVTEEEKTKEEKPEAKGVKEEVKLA

What is called IC50 is the concentration that inhibits the measured activity by half. Low values mean greater potency, high ones weaker potency. Turning to `CN(C)c1ccc(C(=O)NCCCCCCC(=O)NO)cc1`, in experiment [1], the IC50 turned out to be 100 nM. `Cn1cc(/C=C/C(=O)c2cccc(F)c2)cc1/C=C/C(=O)NO` yielded an IC50 in experiment [2] of 100 nM.

For the compound `CC(C)[C@H]1NC(=O)[C@H]2CSSCC/C=C/[C@H](CC(=O)N[C@H](C)C(=O)N2)OC(=O)C[C@@H]1O` [OBP-801], the IC50 is 1600 nM in experiment [3] and 0.0033 µM against Histone deacetylase 1.

Turning to `Cc1nc2ccccc2n1Cc1ccc(C(=O)NO)cc1F`, the IC50 in experiment [3] was found to be 3 nM; against Histone deacetylase 1, 4.32 µM. In turn, `CCCC(CCC)C(=O)O` [VALPROIC ACID] displayed an IC50 on Histone deacetylase 1 of 40 µM.

The values above are taken from ChEMBL document CHEMBL4321798, “Old but Gold: Tracking the New Guise of Histone Deacetylase 6 (HDAC6) Enzyme as a Biomarker and Therapeutic Target in Rare Diseases” (J Med Chem, 2020).
